Where “and” joins values, the source holds several entries; their conditions need not be identical. Equal entries are not always repeated. Where two headings read alike, the source gives them in different places. Each block holds one compound with its values, some of them ahead of it.
What was measured:
MDCK-MDR1 monolayer = conditions: amides 4, cited from earlier work
[1] = mouse liver microsomes; amides 4; cited from earlier work
Notum = target: T1, Notum (Homo sapiens, UniProt Q6P988, C330S); test: Notum enzymatic stability (biochemical assay without OPTS substrate); conditions: up to 72 h
T1 sequence (Q6P988 81-451 C330S): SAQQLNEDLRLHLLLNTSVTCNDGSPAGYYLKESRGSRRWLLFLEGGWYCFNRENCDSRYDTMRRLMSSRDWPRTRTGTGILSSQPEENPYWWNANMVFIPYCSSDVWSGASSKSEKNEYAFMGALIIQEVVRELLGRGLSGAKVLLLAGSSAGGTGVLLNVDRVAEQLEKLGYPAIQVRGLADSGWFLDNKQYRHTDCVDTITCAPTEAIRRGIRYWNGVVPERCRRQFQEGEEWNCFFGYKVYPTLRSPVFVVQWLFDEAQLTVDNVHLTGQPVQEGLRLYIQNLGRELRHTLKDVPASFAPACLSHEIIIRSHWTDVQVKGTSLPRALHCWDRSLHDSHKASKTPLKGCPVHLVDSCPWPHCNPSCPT

[2] = Mouse pharmacokinetics, single oral dose; type: in vivo; conditions: p.o. 10 mg/kg
Procedure: At this point, mouse pharmacokinetic data for 5l was generated in vivo to determine the extent of plasma exposure and to check the correlation of the in vitro ADME data with in vivo outcomes.
Animal Testing Declaration: In vivo mouse pharmacokinetic data was generated at GVK Biosciences, Hyderabad, India. GVK Biosciences is accredited by AAALAC and OLAW for the ethical treatment of animals. All the animal experiments are conducted in accordance with IAEC approved protocols. See: https://www.gvkbio.com/biology-services/in-vivo-pharmacology/

Aqueous solubility = type: physicochemical; conditions: read-out: Aq. solubility
Notum(81–451 Cys330Ser) = target: T2, Notum(81–451 Cys330Ser) (Homo sapiens, UniProt Q6P988, C330S); test: Notum biochemical OPTS assay (carboxylesterase activity); conditions: OPTS substrate, 1 h incubation; geometric mean ± s.d.
T2 sequence (Q6P988 81-451 C330S): T1 sequence (Q6P988 81-451 C330S)

P-gp (MDR1) = test: MDCK-MDR1 cell permeability and efflux; type: in vitro ADME; conditions: dog
LogD7.4 = type: physicochemical; conditions: pH 7.4
[3] = Hydrolytic stability in citrate buffer; type: physicochemical; conditions: citrate buffer 0.1 M, pH 4, up to 24 h, UPLC-MS
CYP2D6 = CYP2D6 (Homo sapiens, UniProt P10635); test: CYP2D6 inhibition; type: in vitro ADME
CYP2D6, sequence (P10635 whole entry): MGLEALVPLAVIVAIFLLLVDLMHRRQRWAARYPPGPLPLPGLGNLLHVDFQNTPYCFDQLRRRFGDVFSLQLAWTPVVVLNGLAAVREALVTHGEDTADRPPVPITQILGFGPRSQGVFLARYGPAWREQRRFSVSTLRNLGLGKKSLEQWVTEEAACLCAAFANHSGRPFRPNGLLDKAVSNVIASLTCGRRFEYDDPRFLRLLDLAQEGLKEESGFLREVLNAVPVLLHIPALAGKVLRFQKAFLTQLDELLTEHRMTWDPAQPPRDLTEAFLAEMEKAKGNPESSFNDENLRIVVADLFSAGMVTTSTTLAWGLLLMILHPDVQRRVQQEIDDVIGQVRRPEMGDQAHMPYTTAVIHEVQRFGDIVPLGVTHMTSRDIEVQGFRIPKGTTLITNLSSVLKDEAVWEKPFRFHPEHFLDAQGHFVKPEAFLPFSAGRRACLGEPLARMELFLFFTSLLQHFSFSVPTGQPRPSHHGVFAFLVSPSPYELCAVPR

CYP2B6 = target: T3, CYP2B6 (Homo sapiens, UniProt P20813); test: CYP2B6 inhibition; type: in vitro ADME
T3 sequence (P20813 1-491): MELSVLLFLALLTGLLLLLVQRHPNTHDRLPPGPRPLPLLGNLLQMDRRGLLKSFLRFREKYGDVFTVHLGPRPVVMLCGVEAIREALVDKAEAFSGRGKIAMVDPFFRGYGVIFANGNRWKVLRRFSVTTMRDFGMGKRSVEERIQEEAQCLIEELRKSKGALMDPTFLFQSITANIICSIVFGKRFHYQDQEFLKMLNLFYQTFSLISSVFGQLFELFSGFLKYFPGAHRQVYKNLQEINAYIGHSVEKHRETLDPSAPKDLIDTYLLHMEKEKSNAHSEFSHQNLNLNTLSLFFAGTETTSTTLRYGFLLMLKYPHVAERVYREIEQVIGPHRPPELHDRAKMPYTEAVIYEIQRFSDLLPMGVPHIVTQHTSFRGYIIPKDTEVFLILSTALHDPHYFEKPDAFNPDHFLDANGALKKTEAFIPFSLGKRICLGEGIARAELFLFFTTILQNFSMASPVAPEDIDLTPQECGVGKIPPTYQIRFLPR

[4] = Metabolic stability in mouse liver microsomes (MLM); type: in vitro ADME
CYP3A4 = CYP3A4 (Homo sapiens, UniProt P08684); test: CYP3A4 inhibition; type: in vitro ADME
CYP3A4, sequence (P08684 whole entry): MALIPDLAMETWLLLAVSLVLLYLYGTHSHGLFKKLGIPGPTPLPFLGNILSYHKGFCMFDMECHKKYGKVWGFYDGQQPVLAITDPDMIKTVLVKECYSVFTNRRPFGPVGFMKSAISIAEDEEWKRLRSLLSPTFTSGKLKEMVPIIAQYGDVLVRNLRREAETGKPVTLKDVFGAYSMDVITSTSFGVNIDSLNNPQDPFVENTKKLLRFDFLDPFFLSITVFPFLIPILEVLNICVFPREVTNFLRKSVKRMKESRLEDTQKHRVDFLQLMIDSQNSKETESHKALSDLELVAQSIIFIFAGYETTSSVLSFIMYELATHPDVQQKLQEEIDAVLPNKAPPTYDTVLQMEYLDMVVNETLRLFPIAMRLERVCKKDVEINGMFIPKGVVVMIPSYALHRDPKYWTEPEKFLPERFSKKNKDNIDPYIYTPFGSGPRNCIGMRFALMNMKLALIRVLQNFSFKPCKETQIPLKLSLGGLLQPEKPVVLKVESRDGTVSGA

CYP1A2 = target: T4, CYP1A2 (Homo sapiens, UniProt P05177); test: CYP1A2 inhibition; type: in vitro ADME
T4 sequence (P05177 1-516): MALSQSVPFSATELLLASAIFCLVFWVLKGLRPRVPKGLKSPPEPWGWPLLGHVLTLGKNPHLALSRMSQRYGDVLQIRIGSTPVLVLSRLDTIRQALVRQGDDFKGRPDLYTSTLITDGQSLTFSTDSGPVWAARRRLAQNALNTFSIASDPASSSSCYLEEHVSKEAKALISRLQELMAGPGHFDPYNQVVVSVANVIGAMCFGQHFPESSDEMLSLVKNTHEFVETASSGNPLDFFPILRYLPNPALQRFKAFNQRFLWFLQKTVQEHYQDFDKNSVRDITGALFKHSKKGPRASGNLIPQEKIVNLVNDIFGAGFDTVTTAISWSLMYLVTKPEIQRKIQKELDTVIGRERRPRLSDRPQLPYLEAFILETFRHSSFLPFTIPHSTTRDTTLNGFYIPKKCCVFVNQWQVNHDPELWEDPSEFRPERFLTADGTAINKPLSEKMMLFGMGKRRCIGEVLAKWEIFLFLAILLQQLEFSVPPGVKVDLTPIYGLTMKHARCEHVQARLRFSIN

Mouse plasma stability = type: in vitro ADME
Excerpt: However, the ER for 24 was perceived to be within acceptable limits based on established precedent.[22] [table]

CYP2C9 = CYP2C9 (Homo sapiens, UniProt P11712); test: CYP2C9 inhibition; type: in vitro ADME
CYP2C9, sequence (P11712 whole entry): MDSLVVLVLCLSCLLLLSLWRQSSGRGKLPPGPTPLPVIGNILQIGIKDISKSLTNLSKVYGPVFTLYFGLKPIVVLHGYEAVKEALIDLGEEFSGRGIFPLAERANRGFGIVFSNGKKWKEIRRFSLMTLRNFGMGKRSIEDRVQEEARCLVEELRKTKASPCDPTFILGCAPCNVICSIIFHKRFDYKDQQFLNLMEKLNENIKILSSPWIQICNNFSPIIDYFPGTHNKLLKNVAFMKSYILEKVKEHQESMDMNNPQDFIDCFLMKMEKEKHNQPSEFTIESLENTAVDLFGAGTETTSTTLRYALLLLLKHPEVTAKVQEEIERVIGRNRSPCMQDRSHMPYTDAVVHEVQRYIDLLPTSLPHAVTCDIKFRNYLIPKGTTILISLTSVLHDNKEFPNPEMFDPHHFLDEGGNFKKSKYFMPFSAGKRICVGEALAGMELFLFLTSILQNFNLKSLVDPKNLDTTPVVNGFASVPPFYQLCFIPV

[5] = C57BL/6, mouse, po, plasma, male C57BL6 mice
[6] = C57BL/6, mouse, po, brain, male C57BL6 mice

Compound: O=C(CSc1ncnc2c(C3CC3)c(Cl)sc12)N1CCOCC1 [Compound 4c]
MDCK-MDR1 AB Papp (MDCK-MDR1 monolayer; A to B direction): 40 ×10⁻⁶ cm/s
MDCK-MDR1 BA Papp (MDCK-MDR1 monolayer; B to A direction): 38 ×10⁻⁶ cm/s
MLM Cli [1]: >500 µL/min/mg

Notum enzymatic stability (Notum): only parent was detected
Cmax [2, 5]: 120 ng/mL
AUC(0-inf) ([2]; C57BL/6, mouse, po, plasma, male C57BL6 mice, read-out: AUC(0-inf)): 70 ng·h/mL
solubility (Aqueous solubility): 77 µg/mL and 215 µM
IC50 (Notum(81–451 Cys330Ser)): 0.0024 ± 0.0004 µM
Papp (P-gp (MDR1); MDCK-MDR1, A to B direction, read-out: MDCK-MDR1 AB Papp): 36 ×10⁻⁶ cm/s
Papp (P-gp (MDR1); MDCK-MDR1, B to A direction, read-out: MDCK-MDR1 BA Papp): 42 ×10⁻⁶ cm/s
logD (LogD7.4): 1.8
Hydrolytic stability [3]: only parent was detected
Compound: Cc1sc2ncnc(SCC(=O)N3CC(=O)N(C)C3)c2c1Cl [Compound 5l]

IC50 (CYP2D6): > 30 µM
IC50 (CYP2B6): > 30 µM
MLM Cli ([4]; Table 5): 6.9 μL/min/mg protein
MLM Cli ([4]; mouse liver microsomes): 6.9 µL/min/mg
Metabolic stability in MLM (in words) ([4]; mouse liver microsomes): high metabolic stability
IC50 (CYP3A4): > 30 µM
Cmax at 24 h [2, 6]: 1210 ng/g
Tmax [2, 6]: 30 min
AUC(0-inf) at 24 h [2, 5]: 5490 ng·h/mL
AUC(0-t) at 24 h [2, 5]: 5390 ng·h/mL
Cmax at 24 h [2, 5]: 3850 ng/mL
Tmax [2, 5]: 30 min
AUC(0-inf) ([2]; brain, male C57BL6 mice): 1610 ng·h/g
AUC(0-t) ([2]; brain, male C57BL6 mice): 1550 ng·h/g
Cmax[brain] (free drug) ([2]; mouse, free drug): ≈ 0.5 μM
Cmax[plasma] (free drug) ([2]; mouse, free drug): ≈ 2.2 μM
IC50 (CYP1A2): > 30 µM
solubility (Aqueous solubility): 45 µg/mL and 120 µM
Mouse plasma stability (in words) (Mouse plasma stability; after 120 min): no degradation observed
remaining at 2 h (Mouse plasma stability; mouse, plasma, 120 min): 110%
IC50 (CYP2C9): > 30 µM
Compound: Cc1c(C(F)(F)F)oc2ncnc(SCC(=O)N3CC(=O)N(C)C3)c12 [Compound 24, 3-Methyl-1-(2-((5-methyl-6-(trifluoromethyl)furo[2,3-d]pyrimidinyl-4-yl)thio)acetyl)imidazolin-4-one]
